Source: US12692254B2, “Benzimidazole inhibitors of PAD enzymes” (BRISTOL-MYERS SQUIBB COMPANY, priority 2018, dated 2026)

Each compound was assayed against human PAD4 (hPAD4) (Homo sapiens, UniProt Q9UM07) (assay: RFMS human PAD4 functional assay (rapid-fire mass spectrum)). Details: 5 nM hPAD4 enzyme, 250 μM BAEE, 50 μM Calcium; 30 min preincubation, 90 min reaction at 37° C.
Type: biochemical
Method: Compounds of the present invention were assayed as inhibitors of PAD4 using the assay protocol described below.
RFMS tinman PAD4 Functional Assay:
Compounds were solubilized in 100% DMSO to achieve a 10 mM compound concentration. Compound stock solutions were stored at RT. A series of dilutions were prepared in DMSO and mixed 8 times with 20 μl, mixing volume. Final top concentration of compound in the assay is 50 μM. […] 1-90 min enzyme/substrate reaction, 30 min reaction with phenyl glyoxal at 37° C. • Stop solution: 40 μl 5% TCA in ACN
0.13 μL of compound solution was added to 13 μL of 10 nM PAD4 in assay buffer. After 30 min 13 μl of 500 μM of BAEE was added in 25 mM hepes, pH 7.5, 5 mM NaCl, 1 mM DTT, 0.2 mg/ml BS A, 0.01% CHAPS, 50 μM Calcium, 5 μM TPEN was added and the reaction incubated for 90 min at 37° C. The enzymatic reaction was quenched by addition of 15 μl of 6.1N TCA, 100% Final Concentration is 20%, 35 μl of 8.5 mM phenyl glyoxal (final concentration 4 mM) is then added and the reaction is incubated for 30 min at 37° C.
After 30 minutes the plates are spun down to remove all precipitate. The enzyme reaction was quenched with an equal volume of methanol containing internal standard (modified citrulline). Samples were loaded onto the Rapid Fire RF300 system (Agilent) wherein they were first sipped for 1000 ms and then directly loaded to a C18 separations cartridge using a mixture of acetonitrile containing 0.01% formic acid for 3000 ms desalting. The flow rate of the mobile phase was 1.5 ml/min.
The dwell time for each transition was set at 200 ms, and the ESI voltage was used at 5500 with a source temperature of 400° C. Extracted ion peaks for each transition were integrated using the Rapid Fire Integrator software. Peak area of analyte was normalized with internal standard).

human PAD4 (hPAD4), sequence (Q9UM07 whole entry): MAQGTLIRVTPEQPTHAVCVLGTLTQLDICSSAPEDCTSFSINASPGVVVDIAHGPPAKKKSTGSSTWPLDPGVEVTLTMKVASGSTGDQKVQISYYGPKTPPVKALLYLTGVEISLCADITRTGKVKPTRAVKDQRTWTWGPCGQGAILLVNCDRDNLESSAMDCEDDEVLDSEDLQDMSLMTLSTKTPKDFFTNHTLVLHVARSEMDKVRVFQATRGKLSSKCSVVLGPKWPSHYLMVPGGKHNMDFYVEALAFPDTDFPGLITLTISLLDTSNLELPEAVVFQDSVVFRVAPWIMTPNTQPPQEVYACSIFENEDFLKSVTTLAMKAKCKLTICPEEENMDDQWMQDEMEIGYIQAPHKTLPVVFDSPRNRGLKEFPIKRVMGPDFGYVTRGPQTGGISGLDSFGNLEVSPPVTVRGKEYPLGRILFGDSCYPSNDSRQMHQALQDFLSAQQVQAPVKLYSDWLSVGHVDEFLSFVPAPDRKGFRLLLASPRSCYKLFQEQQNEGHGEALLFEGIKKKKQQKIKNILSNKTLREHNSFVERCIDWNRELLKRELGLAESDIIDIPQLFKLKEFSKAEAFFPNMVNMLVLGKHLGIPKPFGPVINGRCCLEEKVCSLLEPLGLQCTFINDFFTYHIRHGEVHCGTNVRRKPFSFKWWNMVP

Compound | IC50 [nM]
COc1cc(C(=O)N2C[C@H]3CC[C@@H]2[C@@H]3N)cc2nc(-c3cc4cccnc4n3CC3CC3)n(CC3CN(c4cnc(C#N)nc4)C3)c12 [Example 17, 5-[3-({5-[(1R,4R,7R)-7-amino-2-azabicyclo[2.2.1]heptane-2-carbonyl]-2-[1-(cyclopropylmethyl)-1H-pyrrolo[2,3-b]pyridin-2-yl]-7-methoxy-1H-1,3-benzodiazol-1-yl}methyl)azetidin-1-yl]pyrimidine-2-carbonitrile] | 50
COc1cncc(-n2cc(Cn3c(-c4cc5cccnc5n4CC4CC4)nc4cc(C(=O)N5CC6CCC5[C@@H]6N)cc(OC)c43)cn2)c1 (stereo partly drawn) [Example 352, (7R)-2-{2-[1-(cyclopropylmethyl)-1H-pyrrolo[2,3-b]pyridin-2-yl]-7-methoxy-1-{[1-(5-methoxypyridin-3-yl)-1H-pyrazol-4-yl]methyl}-1H-1,3-benzodiazole-5-carbonyl}-2-azabicyclo[2.2.1]heptan-7-amine] | 19
COc1cc(C(=O)N2C[C@H](N)C[C@@H](F)C2)cc2nc(-c3cc4cccnc4n3CC3CC3)n(Cc3cnn(-c4cccc(C(F)F)n4)c3)c12 [Example 375] | 35
COc1cc(C(=O)N2CC3CCC2[C@@H]3N)cc2nc(-c3cc4ccccc4n3CC3CC3)n(CC3CN(C(=O)c4cnc(Cl)s4)C3)c12 (stereo partly drawn) [Example 414, (7R)-2-(1-{[1-(2-chloro-1,3-thiazole-5-carbonyl)azetidin-3-yl]methyl}-2-[1-(cyclopropylmethyl)-1H-indol-2-yl]-7-methoxy-1H-1,3-benzodiazole-5-carbonyl)-2-azabicyclo[2.2.1]heptan-7-amine] | 35
COc1cc(C(=O)N2C[C@H]3CC[C@@H]2[C@@H]3N)cc2nc(-c3cc4cccnc4n3CC3CC3)n(CC3CN(c4ccccc4)C3)c12 [Example 50, (1R,4R,7R)-2-{2-[1-(cyclopropylmethyl)-1H-pyrrolo[2,3-b]pyridin-2-yl]-7-methoxy-1-[(1-phenylazetidin-3-yl)methyl]-1H-1,3-benzodiazole-5-carbonyl}-2-azabicyclo[2.2.1]heptan-7-amine] | 141
COc1cc(C(=O)N2CC3CCC2[C@@H]3N)cc2nc(-c3cc4ccccc4n3CC3CC3)n(CC3CN(C(=O)c4ccc(Cl)s4)C3)c12 (stereo partly drawn) [Example 445, (7R)-2-(1-{[1-(5-chlorothiophene-2-carbonyl)azetidin-3-yl]methyl}-2-[1-(cyclopropylmethyl)-1H-indol-2-yl]-7-methoxy-1H-1,3-benzodiazole-5-carbonyl)-2-azabicyclo[2.2.1]heptan-7-amine] | 43
COc1cc(C(=O)N2C[C@H](N)C[C@@H](F)C2)cc2nc(-c3cc4cccnc4n3CC3CC3)n(Cc3cnn(-c4ccc(F)cn4)c3)c12 [Example 345, (3R,5R)-1-{2-[1-(cyclopropylmethyl)-1H-pyrrolo[2,3-b]pyridin-2-yl]-1-{[1-(5-fluoropyridin-2-yl)-1H-pyrazol-4-yl]methyl}-7-methoxy-1H-1,3-benzodiazole-5-carbonyl}-5-fluoropiperidin-3-amine] | 49
COc1cc(C(=O)N2CC3CCC2[C@@H]3N)cc2nc(-c3cc4cccnc4n3CC3CC3)n(Cc3cnn(-c4cccc(C(F)(F)F)n4)c3)c12 (stereo partly drawn) [Example 356, (7R)-2-{2-[1-(cyclopropylmethyl)-1H-pyrrolo[2,3-b]pyridin-2-yl]-7-methoxy-1-({1-[6-(trifluoromethyl)pyridin-2-yl]-1H-pyrazol-4-yl}methyl)-1H-1,3-benzodiazole-5-carbonyl)-2-azabicyclo[2.2.1]heptan-7-amine] | 23
COc1cc(C(=O)N2C[C@H](N)CC[C@@H]2C)cc2nc(-c3cc4ccccc4n3CC3CC3)n(CC3CN(C(=O)c4ccc(C#N)cc4)C3)c12 [Example 176, 4-[3-({5-[(2S,5R)-5-amino-2-methylpiperidine-1-carbonyl]-2-[1-(cyclopropylmethyl)-1H-indol-2-yl]-7-methoxy-1H-1,3-benzodiazol-1-yl}methyl)azetidine-1-carbonyl]benzonitrile] | 80
COc1cc(C(=O)N2CC3CCC2[C@@H]3N)cc2nc(-c3cc4cccnc4n3CC3CC3)n([C@H]3C[C@H](NC(=O)c4cc[nH]c(=O)c4)C3)c12 (stereo partly drawn) [Example 299, 2-oxo-N-[(1r,3r)-3-{5-[(1R,4R,7R)-7-amino-2-azabicyclo[2.2.1]heptane-2-carbonyl]-2-[1-(cyclopropylmethyl)-1H-pyrrolo[2,3-b]pyridin-2-yl]-7-methoxy-1H-1,3-benzodiazol-1-yl}cyclobutyl]-1,2-dihydropyridine-4-carboxamide] | 603
COc1cc(C(=O)N2C[C@H]3CC[C@@H]2[C@@H]3N)cc2nc(-c3csc4ccc(Cl)cc34)n(CC3CN(c4ccnc(C#N)n4)C3)c12 [Example 315, 4-[3-({5-[(1R,4R,7R)-7-amino-2-azabicyclo[2.2.1]heptane-2-carbonyl]-2-(5-chloro-1-benzothiophen-3-yl)-7-methoxy-1H-1,3-benzodiazol-1-yl}methyl)azetidin-1-yl]pyrimidine-2-carbonitrile] | 929
COc1cc(C(=O)N2C[C@H]3CC[C@@H]2[C@@H]3N)cc2nc(-c3cc4ccccc4n3C)n(CC3CN(C(=O)c4ccccc4)C3)c12 [Example 181, (1R,4R,7R)-2-{1-[(1-benzoylazetidin-3-yl)methyl]-7-methoxy-2-(1-methyl-1H-indol-2-yl)-1H-1,3-benzodiazole-5-carbonyl}-2-azabicyclo[2.2.1]heptan-7-amine] | 101
COc1cc(C(=O)N2C[C@H](N)C[C@@H](F)C2)cc2nc(-c3cc4ccccc4n3CC3CC3)n(CC3CCC(=O)N3)c12 (stereo partly drawn) [Example 283, 5-({5-[(3R,5R)-3-amino-5-fluoropiperidine-1-carbonyl]-2-[1-(cyclopropylmethyl)-1H-indol-2-yl]-7-methoxy-1H-1,3-benzodiazol-1-yl}methyl)pyrrolidin-2-one] | 895
COc1cc(C(=O)N2C[C@H]3CC[C@@H]2[C@@H]3N)cc2nc(-c3cc4cccnc4n3CC3CC3)n(CC3CN(c4ncncc4C#N)C3)c12 [Example 37, 4-[3-({5-[(1R,4R,7R)-7-amino-2-azabicyclo[2.2.1]heptane-2-carbonyl]-2-[1-(cyclopropylmethyl)-1H-pyrrolo[2,3-b]pyridin-2-yl]-7-methoxy-1H-1,3-benzodiazol-1-yl}methyl)azetidin-1-yl]pyrimidine-5-carbonitrile] | 93
COc1cc(C(=O)N2C[C@H](N)C[C@@H](F)C2)cc2nc(-c3cc4cccnc4n3CC3CC3)n(CC3(C)CN(C(=O)c4ccccc4)C3)c12 [Example 469, (3R,5R)-1-{1-[(1-benzoyl-3-methylazetidin-3-yl)methyl]-2-[1-(cyclopropylmethyl)-1H-pyrrolo[2,3-b]pyridin-2-yl]-7-methoxy-1H-1,3-benzodiazole-5-carbonyl}-5-fluoropiperidin-3-amine] | 129
COc1cc(C(=O)N2CC3CCC2[C@@H]3N)cc2nc(-c3cc4cccnc4n3CC3CC3)n(Cc3cnn(-c4cc(F)cnc4O)c3)c12 (stereo partly drawn) [Example 380, 3-[4-({5-[(7R)-7-amino-2-azabicyclo[2.2.1]heptane-2-carbonyl]-2-[1-(cyclopropylmethyl)-1H-pyrrolo[2,3-b]pyridin-2-yl]-7-methoxy-1H-1,3-benzodiazol-1-yl)methyl}-1H-pyrazol-1-yl]-5-fluoropyridin-2-ol] | 37
COc1cc(C(=O)N2C[C@H]3CC[C@@H]2[C@@H]3N)cc2nc(-c3cc4cccnc4n3CC3CC3)n(CC3CN(C(=O)C4CCCC4)C3)c12 [Example 113, (1R,4R,7R)-2-{1-[(1-cyclopentanecarbonylazetidin-3-yl)methyl]-2-[1-(cyclopropylmethyl)-1H-pyrrolo[2,3-b]pyridin-2-yl]-7-methoxy-1H-1,3-benzodiazole-5-carbonyl]-2-azabicyclo[2.2.1]heptan-7-amine] | 52
COc1cc(C(=O)N2CC3CCC2[C@@H]3N)cc2nc(-c3cc4ccccc4n3CC3CC3)n(Cc3cnn(-c4cnccn4)c3)c12 (stereo partly drawn) [Example 358, (7R)-2-{2-[1-(cyclopropylmethyl)-1H-mdol-2-yl]-7-methoxy-1-{[1-(pyrazin-2-yl)-1H-pyrazol-4-yl]methyl}-1H-1,3-benzodiazole-5-carbonyl}-2-azabicyclo[2.2.1]heptan-7-amine] | 23
COc1cc(C(=O)N2C[C@H]3CC[C@@H]2[C@@H]3N)cc2nc(-c3cc4cccnc4n3CC3CC3)n(CC3CN(c4ccnc(S(C)(=O)=O)n4)C3)c12 [Example 18, (1R,4R,7R)-2-{2-[1-(cyclopropylmethyl)-1H-pyrrolo[2,3-b]pyridin-2-yl]-1-{[1-(2-methanesulfonylpyrimidin-4-yl)azetidin-3-yl]methyl}-7-methoxy-1H-1,3-benzodiazole-5-carbonyl}-2-azabicyclo[2.2.1]heptan-7-amine] | 54
5-(4-((5-((1R,4R,7R)-7-amino-2-azabicyclo[2.2.1]heptane-2-carbonyl)-2-(1-(cyclopropylmethyl)-1H-pyrrolo[2,3-b]pyridin-2-yl)-7-methoxy-1H-benzo[d]imidazol-1-yl)methyl)piperdine-1-carbonyl)pyrimidine-2-carbonitrile [Example 194] | 74
